This note sets out measurements from patent US6620828B2, “Thiazole compounds and pharmaceutical compositions for inhibiting protein kinases and methods for their use” (Agouron Pharmaceuticals, Inc., priority 1999, dated 2003).

The test system of this test is human umbilical vein endothelial cells (HUVEC). The test can be described thus: HUVEC proliferation assay. The format is cell-based. The following applies: for inhibition at 0.15 µM / inhibition at 0.05 µM / inhibition at 0.001 µM / inhibition at 0.01 µM: Homo sapiens, HUVEC; for inhibition at 0.15 µM / % inhibition @ 150 nM: Table I screening results, 150 nM; for inhibition at 0.05 µM: 50 nM; for inhibition at 0.001 µM: 1 nM; for inhibition at 0.01 µM: 10 nM. The method in brief: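 Readout was MTT dye reduction (A595) after 72 h of stimulation with VEGF at 6 ng/ml final. Compound, in 0.1% DMSO final, was added 1 h before VEGF to HUVEC starved 24 h in 1% FBS. % inhibition was scaled between VEGF-alone and unstimulated wells; IC50 was fitted from triplicate dose curves.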

Setting [1] is: crude combinatorial amide library.
Setting [2] is: Inhibition of HUVEC Proliferation, crude combinatorial urea library, read-out: % inhibition @ 50 nM.
[3] abbreviates: table following Table II (untitled), crude combinatorial library.
The mark [4] stands for this setting: table following Table II (untitled), crude combinatorial library, read-out: % inhibition @ 10 nM.
The mark [5] stands for this setting: Table II screening results, crude combinatorial amide library.
Setting [6] is: Table II screening results, crude combinatorial amide library, read-out: % inhibition @ 10 nM.
Where [7] appears, read: Inhibition of HUVEC Proliferation, crude combinatorial urea library, read-out: Inhibition @ 50 nM.
The mark [8] stands for this setting: crude combinatorial urea library, read-out: Inhibition of HUVEC Proliferation % inhibition @ 10 nM.
[9] abbreviates: crude combinatorial urea library, read-out: Inhibition of HUVEC Proliferation % inhibition @ 50 nM.

Like-named read-outs stand apart in the source and are kept apart here.

As for `COc1cc(Nc2nc(N)c(-c3nc(-c4cccc(NC(=O)Cc5cccc(Cl)c5)c4)cs3)s2)cc(OC)c1OC`, the inhibition at 0.15 µM under setting [1] was 30%.
`COc1cc(Nc2nc(N)c(-c3nc(-c4cccc(NC(=O)c5cnc6ccccc6c5)c4)cs3)s2)cc(OC)c1OC` [drawing 896]: the inhibition at 0.15 µM under setting [1] was found to be 42%.
For `CNC(=O)Nc1nc(N)c(-c2nc(-c3cc(NC(=O)c4cccc(OC)c4)c(F)cc3F)cs2)s1`, the inhibition at 0.05 µM under setting [2] is 99%.
`COc1cc(Nc2nc(N)c(-c3nc(-c4cccc(NC(=O)Cc5ccc(F)cc5)c4)cs3)s2)cc(OC)c1OC`: the inhibition at 0.15 µM under setting [1] was -7%.
Regarding `COc1cc(Nc2nc(N)c(-c3nc(-c4cc(NC(=O)c5cccc6cc[nH]c56)ccc4C)no3)s2)cc(OC)c1OC`, under setting [3], the inhibition at 0.001 µM came to 34%. Moreover, the inhibition at 0.01 µM under setting [4] is 41%.
As for `CNC(=O)Nc1nc(N)c(-c2nc(-c3cccc(NC(=O)C4CCC(=O)CC4)c3)cs2)s1`, the inhibition at 0.001 µM under setting [5] was -2%. In addition, the inhibition at 0.01 µM under setting [6] is 12%.
Regarding `COc1cccc(C(=O)Nc2cc(-c3noc(-c4sc(NC(=O)NCCC(=O)NCC(=O)O)nc4N)n3)c(F)cc2F)c1`, the inhibition at 0.05 µM under setting [7] came to 49%.
Regarding `COc1cc(Nc2nc(N)c(-c3nc(-c4cccc(NC(=O)c5ccc(C(C)C)cc5)c4)cs3)s2)cc(OC)c1OC` [drawing 1003], for the setting “crude combinatorial amide library, 0.15 µM”, the “% inhibition @ 150 nM” value worked out at 17%.
Regarding `COc1cccc(C(=O)Nc2cccc(-c3csc(-c4sc(NC(=O)NC(C)CO)nc4N)n3)c2)c1` (stereo not drawn), the inhibition at 0.01 µM under setting [8] was -3%. Besides, under setting [9], the inhibition at 0.05 µM came to 42%.
On to `COc1cccc(C(=O)Nc2cc(-c3noc(-c4sc(NC(=O)NC5CCS(=O)(=O)C5)nc4N)n3)c(F)cc2F)c1` (stereo not drawn), for which the inhibition at 0.05 µM under setting [7] was -7%.
For `CNC(=O)Nc1nc(N)c(-c2nc(-c3cccc(NC(=O)C4CC5C=CCC(C5)C4)c3)cs2)s1` (stereo not drawn), the inhibition at 0.001 µM under setting [5] amounted to 1%. Also, the inhibition at 0.01 µM under setting [6] stood at 55%.
Turning to `COc1cccc(C(=O)Nc2cc(-c3noc(-c4sc(NC(=O)NCCCN5CCCC5)nc4N)n3)c(F)cc2F)c1`, under setting [7], the inhibition at 0.05 µM was determined as 75%.
`COc1cc(Nc2nc(N)c(-c3nc(-c4cc(NC(=O)[C@H](O)C(C)(C)C)ccc4C)no3)s2)cc(OC)c1OC`: the inhibition at 0.001 µM under setting [3] was -34%. Also, the inhibition at 0.01 µM under setting [4] was -11%.
Consider `COc1cccc(C(=O)Nc2cc(-c3noc(-c4sc(NC(=O)NCCC(=O)O)nc4N)n3)c(F)cc2F)c1`, for which the inhibition at 0.05 µM under setting [7] turned out to be 56%.
As for `COc1cccc(C(=O)Nc2cccc(-c3csc(-c4sc(NC(=O)NCc5ccc(N)cc5)nc4N)n3)c2)c1`, the inhibition at 0.01 µM under setting [8] was 4%. Also, the inhibition at 0.05 µM under setting [9] was found to be 35%.
For the compound `CCN1CCCC1CNC(=O)Nc1nc(N)c(-c2nc(-c3cc(NC(=O)c4cccc(OC)c4)c(F)cc3F)no2)s1` (stereo not drawn), under setting [7], the inhibition at 0.05 µM stood at 12%.
For `COc1cccc(C(=O)Nc2cc(-c3noc(-c4sc(NC(=O)NCCC(C)=O)nc4N)n3)c(F)cc2F)c1`, the inhibition at 0.05 µM under setting [7] turned out to be 6%.
As to `COc1cc(Nc2nc(N)c(-c3nc(-c4cc(NC(=O)[C@H]5CCC(=O)N5)ccc4C)no3)s2)cc(OC)c1OC`, the inhibition at 0.001 µM under setting [3] is -4%. In addition, the inhibition at 0.01 µM under setting [4] is 13%.
`COc1cccc(C(=O)Nc2cc(-c3csc(-c4sc(NC(=O)N[C@H]5CC[C@H](O)CC5)nc4N)n3)c(F)cc2F)c1`: under setting [2], the inhibition at 0.05 µM came out at 81%.
As for `COc1cc(Nc2nc(N)c(-c3nc(-c4cccc(NC(=O)C(O)(c5ccccc5)c5ccccc5)c4)cs3)s2)cc(OC)c1OC`, the inhibition at 0.15 µM under setting [1] was -8%.
Regarding `COc1cccc(C(=O)Nc2cc(-c3csc(-c4sc(NC(=O)NCC(C)(C)C)nc4N)n3)c(F)cc2F)c1`, the inhibition at 0.05 µM under setting [2] stood at 43%.
`COc1cc(Nc2nc(N)c(-c3nc(-c4cccc(NC(=O)C5CCCCC5)c4)cs3)s2)cc(OC)c1OC`: under setting [1], the inhibition at 0.15 µM is -24%.
Regarding `COc1cc(Nc2nc(N)c(-c3nc(-c4cccc(NC(=O)/C=C/c5cccnc5)c4)cs3)s2)cc(OC)c1OC`, the inhibition at 0.15 µM under setting [1] is -13%.
On to `COc1cc(Nc2nc(N)c(-c3nc(-c4cccc(NC(=O)c5cc6c(cc5C)C(C)(C)C(C)CC6(C)C)c4)cs3)s2)cc(OC)c1OC` (stereo not drawn), for which, under setting [1], the inhibition at 0.15 µM is 7%.
Regarding `COc1cccc(C(=O)Nc2cccc(-c3csc(-c4sc(NC(=O)NCCS(=O)(=O)O)nc4N)n3)c2)c1`, the inhibition at 0.01 µM under setting [8] worked out at 45%. In addition, the inhibition at 0.05 µM under setting [9] turned out to be 46%.
Regarding `COc1cccc(C(=O)Nc2cc(-c3csc(-c4sc(NC(=O)NCCCN5CCN(C)CC5)nc4N)n3)c(F)cc2F)c1`, the inhibition at 0.05 µM under setting [2] came to 95%.
`COc1cc(Nc2nc(N)c(-c3nc(-c4cccc(NC(=O)c5c[nH]cn5)c4)cs3)s2)cc(OC)c1OC`: under setting [1], the inhibition at 0.15 µM was found to be 15%.
In the case of `COc1cc(Nc2nc(N)c(-c3nc(-c4cc(NC(=O)C5CCC(=O)CC5)ccc4C)no3)s2)cc(OC)c1OC`, the inhibition at 0.001 µM under setting [3] amounted to 23%. The inhibition at 0.01 µM under setting [4] is -24%.
As for `CNC(=O)Nc1nc(N)c(-c2nc(-c3cccc(NC(=O)CC(C)(C)NC(C)=O)c3)cs2)s1`, the inhibition at 0.001 µM under setting [5] is 4%. The inhibition at 0.01 µM under setting [6] is -11%.
Regarding `CNC(=O)Nc1nc(N)c(-c2nc(-c3cccc(NC(=O)c4cccc5[nH]ccc45)c3)cs2)s1`, the inhibition at 0.001 µM under setting [5] is -3%. The inhibition at 0.01 µM under setting [6] is 2%.
On to `COc1cc(Nc2nc(N)c(-c3nc(-c4cc(NC(=O)c5ccccc5C(C)C)ccc4C)no3)s2)cc(OC)c1OC`, for which the inhibition at 0.001 µM under setting [3] came out at 6%. Also, the inhibition at 0.01 µM under setting [4] came to 11%.
Consider `COc1cc(Nc2nc(N)c(-c3nc(-c4cc(NC(=O)c5cc(C)[nH]c5C)ccc4C)no3)s2)cc(OC)c1OC`, for which, under setting [3], the inhibition at 0.001 µM is -36%. Besides, the inhibition at 0.01 µM under setting [4] was found to be 16%.
In the case of `COc1cccc(C(=O)Nc2cc(-c3noc(-c4sc(NC(=O)NCCCN5CCN(C)CC5)nc4N)n3)c(F)cc2F)c1`, under setting [7], the inhibition at 0.05 µM stood at 72%.
On the same count and under the same terms, as for `COc1cccc(C(=O)Nc2cc(-c3noc(-c4sc(NC(=O)NCCCCN(C)C)nc4N)n3)c(F)cc2F)c1`, the figure is -3%.
For `CCC(C)CC(=O)Nc1cccc(-c2csc(-c3sc(Nc4cc(OC)c(OC)c(OC)c4)nc3N)n2)c1` (stereo not drawn), under setting [1], the inhibition at 0.15 µM was -3%.
In the case of `COc1cccc(C(=O)Nc2cc(-c3csc(-c4sc(NC(=O)NCC(=O)NO)nc4N)n3)c(F)cc2F)c1`, the inhibition at 0.05 µM under setting [2] stood at 19%.
With `COc1cc(Nc2nc(N)c(-c3nc(-c4cccc(NC(=O)C5CC(=O)N5)c4)cs3)s2)cc(OC)c1OC` (stereo not drawn), under setting [1], the inhibition at 0.15 µM was -2%.
On to `COc1cc(Nc2nc(N)c(-c3nc(-c4cc(NC(=O)C5CNC(=O)N5)ccc4C)no3)s2)cc(OC)c1OC` (stereo not drawn), for which, under setting [3], the inhibition at 0.001 µM is -43%. The inhibition at 0.01 µM under setting [4] is -7%.
As for `COc1cccc(C(=O)Nc2cc(-c3csc(-c4sc(NC(=O)NCCc5cccnc5)nc4N)n3)c(F)cc2F)c1`, the inhibition at 0.05 µM under setting [2] came to 100%.
Take `COc1cccc(C(=O)Nc2cc(-c3csc(-c4sc(NC(=O)NCCC5CCCN5C)nc4N)n3)c(F)cc2F)c1` (stereo not drawn): the inhibition at 0.05 µM under setting [2] is 27%.
`COc1cc(Nc2nc(N)c(-c3nc(-c4cccc(NC(=O)/C=C/c5ccco5)c4)cs3)s2)cc(OC)c1OC`: under setting [1], the “% inhibition @ 150 nM” value is 0%.
As for `COc1cccc(C(=O)Nc2cc(-c3csc(-c4sc(NC(=O)NCS(=O)(=O)O)nc4N)n3)c(F)cc2F)c1`, under setting [2], the inhibition at 0.05 µM came to 0%.
For `COc1cc(Nc2nc(N)c(-c3nc(-c4cccc(NC(=O)c5ccc6[nH]nnc6c5)c4)cs3)s2)cc(OC)c1OC`, under setting [1], the inhibition at 0.15 µM is -8%.
`COc1cccc(C(=O)Nc2cc(-c3csc(-c4sc(NC(=O)NCc5ccc(N(C)C)cc5)nc4N)n3)c(F)cc2F)c1`: the inhibition at 0.05 µM under setting [2] was 39%.
In the case of `COc1cccc(C(=O)Nc2cc(-c3noc(-c4sc(NC(=O)NCCc5ccc(N)cc5)nc4N)n3)c(F)cc2F)c1`, the inhibition at 0.05 µM under setting [7] amounted to 88%.
In the case of `CNC(=O)Nc1nc(N)c(-c2nc(-c3cccc(NC(=O)[C@@H](O)C(C)C)c3)cs2)s1`, the inhibition at 0.001 µM under setting [5] was determined as 16%. Also, the inhibition at 0.01 µM under setting [6] worked out at 4%.
On to `COc1cc(Nc2nc(N)c(-c3nc(-c4cc(NC(=O)C5CCC6CCC(O)CC5C6)ccc4C)no3)s2)cc(OC)c1OC` (stereo not drawn), for which the inhibition at 0.001 µM under setting [3] turned out to be 10%. For the same compound, the inhibition at 0.01 µM under setting [4] is 11%.
With `COc1cccc(CC(=O)Nc2ccc(C)c(-c3noc(-c4sc(Nc5cc(OC)c(OC)c(OC)c5)nc4N)n3)c2)c1`, the inhibition at 0.001 µM under setting [3] turned out to be 12%. Also, under setting [4], the inhibition at 0.01 µM came to 35%.
As for `COc1cccc(C(=O)Nc2cccc(-c3csc(-c4sc(NC(=O)NCC(C)(C)C)nc4N)n3)c2)c1`, the inhibition at 0.01 µM under setting [8] came to 44%. In addition, under setting [9], the inhibition at 0.05 µM stood at 34%.
In the case of `COc1cccc(C(=O)Nc2cc(-c3csc(-c4sc(NC(=O)NCC(C)(C)N)nc4N)n3)c(F)cc2F)c1`, the inhibition at 0.05 µM under setting [2] is 73%.
In the case of `COc1cc(Nc2nc(N)c(-c3nc(-c4cc(NC(=O)CCN5CCCCC5)ccc4C)no3)s2)cc(OC)c1OC`, the inhibition at 0.001 µM under setting [3] is 3%. For the same compound, under setting [4], the inhibition at 0.01 µM came to 28%.
For `COc1cc(Nc2nc(N)c(-c3nc(-c4cccc(NC(=O)c5ccc6[nH]cnc6c5)c4)cs3)s2)cc(OC)c1OC`, the inhibition at 0.15 µM under setting [1] is -30%.
As for `COc1cc(Nc2nc(N)c(-c3nc(-c4cc(NC(=O)c5cc(=O)[nH]c(=O)[nH]5)ccc4C)no3)s2)cc(OC)c1OC`, the inhibition at 0.001 µM under setting [3] is -4%. For the same compound, under setting [4], the inhibition at 0.01 µM stood at 4%.
Take `CNC(=O)Nc1nc(N)c(-c2nc(-c3cccc(NC(=O)Cc4cn(C)cn4)c3)cs2)s1`: the inhibition at 0.001 µM under setting [5] is 34%. The inhibition at 0.01 µM under setting [6] stood at 42%.
